Assay results from US8313669B2, “Liquid-crystal display” (Merck Patent Gesellschaft mit Beschränkter Haftung, priority 2007, dated 2012).

Test: Solubility in nematic LC mixture LCT-06-441 (crystallisation on cooling)
Type: physicochemical
Settings: 5% by weight in LCT-06-441, stirred at 50° C. for ½ hour, then cooled to room temperature without stirring
Method: The solubility of compound (1) is compared with the solubility of the structurally analogous compound (A) known from the prior art (for example EP 1 498 468 A1), in which the polymerisable groups are linked in the para-position to the mesogenic group:
To this end, each compound is dissolved in the commercially available nematic LC mixture LCT-06-441 (Merck KGaA, Darmstadt) in a concentration of 5% by weight with stirring at 50° C. (½ hour) and then cooled to room temperature without stirring.
With `C=C(C)C(=O)Oc1cccc(-c2cccc(OC(=O)C(=C)C)c2)c1` [(1), 3′-(2-Methylacryloyloxy)biphenyl-3-yl 2-methylacrylate] the “Solubility (crystallisation behaviour)” value was “Crystallises out overnight at RT”.
For `C=C(C)C(=O)Oc1ccc(-c2ccc(OC(=O)C(=C)C)cc2)cc1` [(A), reference compound], the “Solubility (crystallisation behaviour)” value was “Immediately crystallises out on cooling to RT”.

Test: not given
Settings: not given
In the case of `C=C(C)C(=O)Oc1cccc(-c2cccc(OC(=O)C(=C)C)c2)c1` [(1), 3′-(2-Methylacryloyloxy)biphenyl-3-yl 2-methylacrylate], the melting point is reported as 70 °C.
`C=CC(=O)Oc1cccc(-c2cccc(OC(=O)C=C)c2)c1` [(2), 3′-Acryloyloxybiphenyl-3-yl acrylate] showed a melting point of 48 °C.
With `C=C(C)C(=O)OCCCOc1cccc(-c2cccc(OC(=O)C(=C)C)c2)c1` [(3), 3′-[3-(2-Methylacryloyloxy)propoxy]biphenyl-3-yl 2-methylacrylate] the melting point was 49 °C.
`C=C(C)C(=O)OCCCCc1cc(-c2ccc(OC(=O)C(=C)C)cc2)ccc1OC(=O)C(=C)C` [(9), 4′-(2-Methylacryloyloxy)-3-[4-(2-methylacryloyloxy)butyl]biphenyl-4-yl 2-methylacrylate] showed a melting point of 76 °C.
